# Source: patent US12202841B2, “Therapeutic agents for enhancing epithelial and/or endothelial barrier function” (ARTUS THERAPEUTICS, INC., priority 2022, dated 2025)
# Entries after “also recorded” stand apart in the source; their conditions may differ.
# Assays:
# [1] = test system: murine DSS model of ulcerative colitis; test: Murine DSS model of ulcerative colitis (acute); format: in vivo, mouse; settings: for efficacy in the murine DSS model of colitis / DSS-elicited body weight loss / disease activity index (DAI) / colon length: 20 mg/kg oral gavage on days 4, 6, 8, 10; for efficacy in the murine DSS model of colitis: 2.5% DSS, C57BL/6 mice; for DSS-elicited body weight loss: FIG. 6E; for disease activity index (DAI): FIG. 6F; for colon length: day 12, FIG. 6B, 6C
# Method: FIGS. 6A-F illustrate efficacy of ARTX-339, ARTX-405A, ARTX-413, and ARTX-425P1 in the murine DSS model of ulcerative colitis. A. C57BL/6 mice (7-8-week old mice) were supplied with 2.5% DSS in their drinking water for 7 days. Starting on day 4 post DSS treatment, mice were dosed once every other day with 100 μL vehicle (0.25% sodium carboxymethylcellulose used in the formulation of ARTX compounds), or 100 μL ARTX-339, ARTX-405A, ARTX-413, or ARTX-425P1 at 20 mg/kg body weight by oral gavage on days 4, 6, 8, and 10. Mice were euthanized on day 12. FITC dextran was administered to the mice via oral gavage 4 hours preceding euthanization. Following euthanization, colons were dissected, and their length measured. B. Measurements of colon length. C. Photographs of dissected colons. D. Measurement of FITC-dextran in serum following euthanization. […] Higher levels of serum FITC-dextran following DSS-treatment is an indication of a loss of barrier function. E. Body weight was measured every other day starting at day 0 with the initiation of DSS treatment. F. Disease activity index (DAI) scores were assigned every other day. The higher the DAI score, the worse the symptoms. **** indicates p<0.0001; *** indicates p<0.001; ** indicates=p<0.01.
# A murine dextran sodium sulfate (DSS)-elicited model of ulcerative colitis was utilized to measure the efficacy of compounds in vivo. Oral administration of DSS in drinking water, a chemical colitogen with anticoagulant properties, leads to disruption of gut epithelium causing enhanced gut permeability, inflammation, and severe damage of gut barrier function^71,72. The rationale for using the murine DSS^71,72 model of UC is that it is a well-established gut epithelial barrier disrupting model that can be used to model both acute and chronic UC^70,71.
# Starting on day 4 post DSS treatment, mice were dosed once every other day with 100 μL vehicle (0.25% sodium carboxymethylcellulose used in the formulation of ARTX compounds), or 100 μL ARTX-339, ARTX-405A, ARTX-413, or ARTX-425P1 at 20 mg/kg body weight by oral gavage on days 4, 6, 8, and 10. Mice were euthanized on day 12. FITC dextran was administered to the mice via oral gavage 4 hours prior to euthanization. Following euthanization, colons were dissected, and their lengths were measured.
# [2] = test system: TNBS-induced colitis in mice; test: Murine TNBS model of ulcerative colitis; format: in vivo; settings: TNBS mouse model of UC
# Method: FIGS. 2A-D illustrates that UAS03 is efficacious in a mouse 2,4,6-trinitrobenzenesulfonic acid (TNBS) model when administered either pre- or post-TNBS treatment. Pre-treatment: Mice (n=10 per group) were given UAS03 orally QD (20 mg/kg) for 7 days followed by administration of TNBS. Mice were euthanized 72 h post-TNBS treatment. Post-treatment: Mice (n=10 per group) received UAS03 QD (20 mg/kg) 24, 48, and 72 h post-TNBS. A) Ratio of colon weight/length. B) Intestinal permeability evaluated using a FITC-dextran leakage assay. C) Serum levels of TNF-α measured using a standard ELISA method. D) Claudin-4 (Cldn4) expression in mouse colons. […] Error bars, ±SEM; ***p<0.001.
# Intra-rectal administration of 2,4,6-Trinitrobenzenesulfonic acid (TNBS) induces CD4^+-dependent colitis in mice resulting in increased intestinal permeability, shortening of colons, and increased inflammation^70. […] The symptoms that were reversed included body weight loss, colon weight/length ratio (FIG. 2A), increased gut permeability (FIG. 2B), and enhanced levels of inflammatory cytokines (FIG. 2C)^44. […] The beneficial effects of UAS03 in TNBS-treated mice were not observed in either AhR^−/− or Nrf2^−/− mutant mice^44. […] UAS03 was also efficacious in both acute and chronic dextran sodium sulfate (DSS)-induced^71,72 colitis models^44. […]
# Cyp1A1 = test: Activation of Cyp1A1 expression; format: cell-based
# Method: (§1) Step 2: Selected compounds from step 1 were tested at a range of concentrations for activation of Cyp1A1 mRNA levels using qRT-PCR, for activation of Cyp1A1 enzymatic activity (ethoxyresorufin-O-deethylase (EROD) assay), or activation of an AhR-reporter gene driven by a so-called dioxin-response element (DRE) using commercially available kits. Activation of Cyp1A1 mRNA levels, activation of Cyp1A1 enzymatic activity, or activation of an AhR reporter gene construct driven by a DRE is generally considered to be indicative of a compound's ability to function as an AhR ligand. When activated by a ligand, cytosolic AhR translocates to the nucleus and dimerizes with the AhR nuclear translocator protein ARNT. The AhR/ARNT complex then binds to DREs to activate gene transcription.
# Acute toxicity in rats = settings: rat, in vivo
# From the text: (§2) However, potential genotoxicity of ARTX-86 is consistent with its planar structure, which may allow ARTX-86 to intercalate into the DNA double helix. It's possible that reactive metabolites of ARTX-86 are being formed by the S9 fraction and the ability of ARTX-86 to intercalate into the DNA helix delivers the radicals or other toxic metabolites directly to the DNA.
# hERG = hERG (Homo sapiens, UniProt Q12809); test: hERG assay
# Method: (§3) Step 4: Toxicity studies, including hERG and Ames tests, are conducted on compounds.
# [3] = Preliminary PK studies in rats; settings: rat, in vivo
# From the text: as §2
# Salmonella strains = test: Ames test
# Method: as §3, §2
# [4] = pH 2.0 in the presence of gastric enzymes; cited from earlier work
# [5] = test system: bone marrow derived macrophages; settings: cited from earlier work
# [6] = test system: LPS-elicited mouse peritonitis model; settings: cited from earlier work
# [7] = test system: HT-29 and Caco-2 intestinal epithelial cell lines; settings: RNA-seq and qRT-PCR; cited from earlier work
# [8] = test system: cytochrome P450 1A1 (Cyp1A1) and heme oxygenase 1 (HMOX1 or HO1) genes; settings: cited from earlier work
# [9] = test system: TNBS-induced colitis in mice; settings: cited from earlier work
# [10] = test system: DSS-induced colitis in mice; settings: cited from earlier work
# AhR = molecular target: T1, AhR (Homo sapiens, UniProt P35869); settings: published data; cited from earlier work
# T1 sequence (P35869 11-848): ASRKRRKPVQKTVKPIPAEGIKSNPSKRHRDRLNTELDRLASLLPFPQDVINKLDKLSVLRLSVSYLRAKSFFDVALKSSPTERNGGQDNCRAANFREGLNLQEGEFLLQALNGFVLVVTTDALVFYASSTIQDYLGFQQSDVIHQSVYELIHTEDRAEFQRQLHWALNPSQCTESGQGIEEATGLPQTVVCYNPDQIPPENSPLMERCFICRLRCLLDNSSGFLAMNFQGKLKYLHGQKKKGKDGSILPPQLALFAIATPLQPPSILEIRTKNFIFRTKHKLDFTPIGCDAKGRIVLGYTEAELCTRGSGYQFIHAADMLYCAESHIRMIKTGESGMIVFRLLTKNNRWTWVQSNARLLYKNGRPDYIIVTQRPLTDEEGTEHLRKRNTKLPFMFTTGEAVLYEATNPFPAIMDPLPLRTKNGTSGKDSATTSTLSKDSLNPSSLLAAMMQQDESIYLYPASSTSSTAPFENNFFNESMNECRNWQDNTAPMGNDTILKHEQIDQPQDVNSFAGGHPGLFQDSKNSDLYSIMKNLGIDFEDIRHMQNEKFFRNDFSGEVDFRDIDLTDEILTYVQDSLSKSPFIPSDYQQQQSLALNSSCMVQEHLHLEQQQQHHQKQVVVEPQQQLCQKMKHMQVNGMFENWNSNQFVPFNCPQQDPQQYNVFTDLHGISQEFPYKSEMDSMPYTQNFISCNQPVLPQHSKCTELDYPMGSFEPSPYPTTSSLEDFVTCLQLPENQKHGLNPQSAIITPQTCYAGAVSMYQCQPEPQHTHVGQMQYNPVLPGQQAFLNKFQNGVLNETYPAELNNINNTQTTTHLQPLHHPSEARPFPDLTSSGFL
# [11] = extensively tested; cited from earlier work
# AhR signaling pathway [12] = test: Luciferase AhR-reporter gene (DRE) assay in human hepatic cells; format: cell-based; settings: FIG. 7A
# Method: as §1
# (§4) In these experiments, human hepatic cells (FIG. 7A) or human intestinal epithelial cells (FIG. 7B) containing a luciferase AhR-reporter gene construct driven by a so-called dioxin-response element (DRE) were treated with various concentrations of ARTX-413 or with various concentrations of the well-studied AhR ligand β-naphthoflavone (BNF) using commercially available kits. Activation of Cyp1A1 mRNA levels, activation of Cyp1A1 enzymatic activity, or activation of an AhR reporter gene construct driven by a DRE is generally considered to be indicative of a compound's ability to function as an AhR ligand.
# AhR signaling pathway [13] = test: Luciferase AhR-reporter gene (DRE) assay in human intestinal epithelial cells; format: cell-based; settings: FIG. 7B
# Method: as §1, §4
# [14] = In vitro safety pharmacology assays
# Sequence of hERG (Q12809 whole entry): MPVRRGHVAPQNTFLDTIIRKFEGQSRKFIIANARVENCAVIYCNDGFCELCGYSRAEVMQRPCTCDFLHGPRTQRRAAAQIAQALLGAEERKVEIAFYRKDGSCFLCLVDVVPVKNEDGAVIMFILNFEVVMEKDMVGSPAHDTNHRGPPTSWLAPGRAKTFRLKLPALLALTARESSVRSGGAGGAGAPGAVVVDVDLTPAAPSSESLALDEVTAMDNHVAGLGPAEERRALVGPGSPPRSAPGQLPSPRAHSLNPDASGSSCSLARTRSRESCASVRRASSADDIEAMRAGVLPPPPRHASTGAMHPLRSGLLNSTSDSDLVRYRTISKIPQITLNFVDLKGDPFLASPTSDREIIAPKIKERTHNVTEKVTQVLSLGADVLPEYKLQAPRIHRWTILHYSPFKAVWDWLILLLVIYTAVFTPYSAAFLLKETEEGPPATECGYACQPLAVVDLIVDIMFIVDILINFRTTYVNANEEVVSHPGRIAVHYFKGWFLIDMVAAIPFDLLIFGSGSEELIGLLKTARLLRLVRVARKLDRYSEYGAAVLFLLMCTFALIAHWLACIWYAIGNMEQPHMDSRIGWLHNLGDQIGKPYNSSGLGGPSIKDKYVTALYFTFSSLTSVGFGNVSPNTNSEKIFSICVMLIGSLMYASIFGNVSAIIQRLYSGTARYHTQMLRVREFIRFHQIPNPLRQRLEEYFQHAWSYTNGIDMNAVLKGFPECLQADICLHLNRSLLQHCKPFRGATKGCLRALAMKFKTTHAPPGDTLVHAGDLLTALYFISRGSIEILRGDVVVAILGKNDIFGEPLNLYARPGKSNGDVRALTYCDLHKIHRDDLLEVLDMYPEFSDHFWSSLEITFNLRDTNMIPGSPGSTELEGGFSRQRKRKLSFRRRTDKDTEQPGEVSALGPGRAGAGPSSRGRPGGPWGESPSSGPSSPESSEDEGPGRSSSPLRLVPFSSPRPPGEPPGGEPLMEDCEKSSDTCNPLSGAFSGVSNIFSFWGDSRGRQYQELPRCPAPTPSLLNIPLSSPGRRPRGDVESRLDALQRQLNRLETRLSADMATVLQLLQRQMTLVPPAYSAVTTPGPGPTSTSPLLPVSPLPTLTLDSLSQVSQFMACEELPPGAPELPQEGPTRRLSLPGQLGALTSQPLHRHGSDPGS
smiles,measurement,setting,value
"CC(C)[C@@H]1Oc2cc(O)ccc2-c2ccc(F)cc21 (single isomer, unassigned) [ARTX-425P1]",efficacy in the murine DSS model of colitis,[1],exhibited efficacy
same,DSS-elicited body weight loss,[1],highly statistically significant
same,disease activity index (DAI),[1],highly statistically significant
same,colon length,[1],a statistically significant increase in colon length was not observed
Oc1ccc2c(c1)OCc1cc(F)ccc1-2 [ARTX-86],efficacy compared with UAS03,[2],equally efficacious as UAS03
same,"activating the expression of Cyp1A1, compared with UroA and UAS03",Cyp1A1,comparably active as UroA and UAS03
same,efficacy compared with UAS03,[1]; DSS mouse model of UC,equally efficacious as UAS03
same,NOAEL,Acute toxicity in rats,1000 mg/kg/day
same,MTD,Acute toxicity in rats; acute toxicity,> 2000 mg/kg
same,cardiotoxicity in hERG assay,hERG; up to 60 times the efficacious dose,not cardiotoxic
same,half-life,[3]; 20 mg/kg,2.22 ± 0.5 h
same,Cmax,[3]; dosed at 20 mg/kg,92 ± 15 ng/mL
same,Ames test result,"Salmonella strains; one of the Salmonella strains, with / without liver S9 enzymes",tested positive in the presence but not the absence of liver S9 enzymes
Oc1ccc2c(c1)COc1cc(O)ccc1-2 [UAS03],time stable,[4],at least 12 hours
same,"levels of LPS-induced TNF-α, IL-6, CXCL-1, and IL-1β",[5],markedly decreased
same,"levels of LPS-induced TNF-α, IL-6, CXCL-1, and IL-1β",[6],markedly decreased
same,"expression of tight junction proteins claudin 4, ZO-1, and occludin 1",[7],upregulates
same,expression of Cyp1A1 and HO1 genes,[8],activated
same,potency relative to UroA,[9]; TNBS model,about 10 fold
same,beneficial effects in AhR−/− or Nrf2−/− mutant mice,[9]; TNBS-treated AhR−/− or Nrf2−/− mice,not observed
same,claudin 4 (Cldn4) expression / protein levels,"[9]; TNBS-treated mice, colons",induced the expression; also recorded: reversed a dramatic decrease
same,"UC symptoms (body weight loss, colon weight/length ratio, gut permeability, inflammatory cytokines)","[9]; orally QD or BID for three days following TNBS, 20 mg/kg",dramatically reversed
same,development of TNBS-elicited symptoms,[9]; pre-treated QD for 7 days at 20 mg/kg,blocked
same,protection in chronic DSS model,"[10]; 4 cycles of 2% DSS, 90 day experiment, UAS03 QD 20 mg/kg",protected against DSS-induced chronic colitis
same,efficacy in acute and chronic DSS-induced colitis models,"[10]; mouse, in vivo",efficacious
"O=c1oc2cc(O)ccc2c2ccc(O)cc12 [UroA, Urolithin A]",hydrolysis,[4],rapidly hydrolyzed
same,AhR ligand activity,AhR,AhR ligand that activates the AhR signaling pathway
same,genotoxicity,[11],no indications of genotoxicity have been reported
"Oc1cc(O)c2c(c1)C1(CCCC1)c1cc(F)ccc1-2 [ARTX-405A, 7′-fluorospiro[cyclopentane-1,9′-fluorene]-2′,4′-diol]",efficacy in the murine DSS model of colitis,[1],exhibited efficacy
same,DSS-elicited body weight loss,[1],highly effective
same,disease activity index (DAI),[1],highly effective
same,colon length,[1],highly effective
"Oc1ncc2c(n1)OCc1cc(F)ccc1-2 [ARTX-413, 8-fluoro-6H-isochromeno[3,4-d]pyrimidin-3-ol]",efficacy in the murine DSS model of colitis,[1],exhibited efficacy
same,DSS-elicited body weight loss,[1],highly effective
same,disease activity index (DAI),[1],highly effective
same,colon length,[1],highly effective
same,hERG inhibition / risk of cardiotoxicity,hERG; FIG. 8,low risk of cardiotoxicity
same,Ames test result,Salmonella strains; concentrations as high as 1.0 mg/mL,non-genotoxic
same,activation of AhR reporter gene,AhR signaling pathway [12],activate the AhR signaling pathway
same,activation of AhR reporter gene,AhR signaling pathway [13],activate the AhR signaling pathway
same,off-target effects,[14],did not identify any significant off-target effects
